Like-named read-outs stand apart in the source and are kept apart here.
Key:
[1] = Salt screening (slurry crystallization); assay type: physicochemical; parameters: key to Salt screening result: (+) shows that a crystalline salt was formed; (−) physical mixtures; settings: for Polymorph obtained in salt screening: XRPD; for Salt screening result: slurry 50° C. then 25° C.
[2] = wetted with water or ethanol, ground, dried 10 min; XRPD
Protocol: Wet samples were ground gently with a mortar and pestle. Post granulation samples were dried under ambient condition for 10 min. Potential change of polymorph form and degree of crystallinity were evaluated by XRPD.

[3] = Thermogravimetric analysis (TGA) weight loss; assay type: physicochemical; settings: large scale batch, at the temperature printed in the same cell (100-170° C.)
[4] = Thermogravimetric analysis (TGA) weight loss; assay type: physicochemical; settings: salt screening sample, at the temperature given (80-200° C.)
Description: (§1) According to the salt screening results (see Table 4), totally 19 potential salt hits were identified. All the potential salt hits were further investigated by Differential Scanning Calorimetry (DSC), Thermogravimetric analysis (TGA), H-NMR, Ion chromatography (IC), Karl Fischer titration (KF), and Polarized Light Microscopy (PLM) to confirm their identity and evaluate their physicochemical properties as shown in Table 5 below.

[5] = ground manually with mortar and pestle for 5 min; XRPD
Protocol: Potential change of polymorph form and degree of crystallinity were evaluated by XRPD.

Crystallinity by XRPD = assay type: physicochemical; settings: large scale batch
In short: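 Salt suspensions were centrifuged, and the recovered solids were analysed by XRPD for crystallinity.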

[6] = Dynamic vapor sorption (DVS) test at 25° C.; assay type: physicochemical; settings: for Desorp. (%) / Sorp. (%): cycle 40-0-95-0-40% RH
[7] = Hygroscopicity (water uptake) of salt hits; assay type: physicochemical; settings: salt screening sample
Description: as §1

[8] = listed as succinate salt Polymorph A

For COc1cc(C(F)(F)F)c(OC)cc1[C@@H]1CCCNC1.O=C(O)CCC(=O)O [Succinate salt Polymorph A (anhydrate), succinic acid salt of (S)-3-(2,5-dimethoxy-4-(trifluoromethyl)phenyl)piperidine], the “Polymorph obtained in salt screening” value ([1]; ACN) was “Polymorph A”, the Salt screening result ([1]; ACN) was “+” and the “Polymorph obtained in salt screening” value ([1]; Acetone) was “Polymorph A”. The Salt screening result ([1]; Acetone) was “+”, the “Polymorph obtained in salt screening” value ([1]; EtOH) was “Polymorph A” and the Salt screening result ([1]; EtOH) was “+”. The “Change of polymorph form and degree of crystallinity” value [2] was “No change in polymorph form and crystallinity was observed”, the “Weight loss (%) at Temperature (° C.)” value [3] was 0.2 at % and the “Weight loss (%) at Temperature (° C.)” value [3, 8] was “about 0.2%”. For the same compound, the “Weight loss (%)” value [4] was 2.1%, the “Change of polymorph form and degree of crystallinity” value [5] was “No change in polymorph form and crystallinity was observed” and the Crystallinity (Crystallinity by XRPD) was “High”. For the same compound, the Crystallinity (Crystallinity by XRPD; [8]) was “high crystallinity”, the “Desorp. (%)” value ([6]; 0% RH, 25° C.) was 0.00% and the “Sorp. (%)” value ([6]; 0% RH, 25° C.) was 0.06%. For the same compound, the “Desorp. (%)” value ([6]; 10% RH, 25° C.) was 0.01%, the “Sorp. (%)” value ([6]; 10% RH, 25° C.) was 0.06% and the “Desorp. (%)” value ([6]; 20% RH, 25° C.) was 0.01%. The “Sorp. (%)” value ([6]; 20% RH, 25° C.) was 0.07%, the “Water absorbed from 40% RH to 95% RH” value ([6]; 25° C.) was “about 0.21%” and the “Desorp. (%)” value ([6]; 30% RH, 25° C.) was 0.02%. For the same compound, the “Sorp. (%)” value ([6]; 30% RH, 25° C.) was 0.07%, the “Desorp. (%)” value ([6]; 40% RH, 25° C.) was 0.02% and the “Sorp. (%)” value ([6]; 40% RH, 25° C.) was 0.07%. The “Desorp. (%)” value ([6]; 50% RH, 25° C.) was 0.02%, the “Sorp. (%)” value ([6]; 50% RH, 25° C.) was 0.09% and the “Desorp. (%)” value ([6]; 60% RH, 25° C.) was 0.03%. For the same compound, the “Sorp. (%)” value ([6]; 60% RH, 25° C.) was 0.08%, the “Desorp. (%)” value ([6]; 70% RH, 25° C.) was 0.10% and the “Sorp. (%)” value ([6]; 70% RH, 25° C.) was 0.09%. For the same compound, the “Desorp. (%)” value ([6]; 80% RH, 25° C.) was 0.11%, the “Sorp. (%)” value ([6]; 80% RH, 25° C.) was 0.10% and the “Desorp. (%)” value ([6]; 90% RH, 25° C.) was 0.16%. For the same compound, the “Sorp. (%)” value ([6]; 90% RH, 25° C.) was 0.14%, the “Desorp. (%)” value ([6]; 95% RH, 25° C.) was 0.29% and the “Sorp. (%)” value ([6]; 95% RH, 25° C.) was 0.29%. The “XRPD after DVS test” value ([6]; DVS at 25° C.) was “No form changes”, the Hygroscopicity ([6]; DVS at 25° C., grade in words) was “non-hygroscopic” and the “Hygroscopicity (water uptake % w/w)” value [7] was “(~0.7%) % w/w”.

Source: patent publication US12723024B2 (priority 2021, dated 2026)
